Melting point data for 85 compounds are collected here from a melting point compilation (Tetko et al.; mined from patent text by program, amines drawn as free bases though some values may be those of a salt).

Some results are limits rather than exact numbers.

Regarding `COc1ccc(C(=O)c2c(O)c3ccccc3[nH]c2=O)cc1OC`, the melting point (as a rule, the temperature of the solid-liquid transition) fell in the range of 235 to 236 °C.

Compound `N#Cc1cn(-c2c(Cl)cccc2Cl)c(=O)[nH]c1=O` yielded a melting point of 273 to 274 °C.

Compound `Clc1cccc(OC2CCNc3ncc(-c4ccc(N5CCOCC5)cc4)cc32)c1` (stereo not given) had a melting point of 124 to 126 °C.

`COc1ccc2c(c1)CCC1CCNC(=O)C(CC(C)=NO)=C21` (stereo not given) registered a melting point of 216 to 218 °C.

Take `CCCCCCCCCCCCCCCCOCC(=O)O`: the melting point is 64 to 66 °C.

In turn, `Cc1c(OCc2ccccc2)ccc2c(O)c(C(=O)Nc3cccc(F)c3)c(=O)oc12` showed a melting point of 220 °C.

In the case of `CCC(C)(C)c1ccc(Oc2cc(N)c(O)c([N+](=O)[O-])c2)c(C(C)(C)CC)c1`, the melting point was in the range of 144 to 148 °C.

Take `COc1ccc(F)c([C@@H]2C[C@H]2CNC(=O)C(C)C)c1` (relative stereo): the melting point lay in the range of 56 to 57 °C.

The compound `Cc1nc2ccc(CBr)cc2c(=O)n1COC(=O)C(C)(C)C` yielded a melting point of 144 to 145 °C.

For `CCCCOC(=O)N[C@H](C(=O)NCCc1ccc(OCC#Cc2ccc(Cl)cc2)c(OC)c1)C(C)C`, the melting point lay in the range of 141 to 142 °C.

In the case of `COC(=O)[C@H](CC(C)C)NC(=O)[C@@H]1CSC(=O)N1`, the melting point lay in the range of 125 to 126 °C.

Turning to `COc1ccccc1-c1nn(-c2ccccc2)c(=O)o1`, the melting point fell in the range of 112 to 115 °C.

`Cn1c2c(c3ccccc3c1=O)C(=O)c1cc(OCc3ccccc3)c(OCc3ccccc3)cc1-2` showed a melting point of 198 to 200 °C.

Compound `CCN(CC)CCN1C(=O)Nc2ccccc2C1c1cccc(O)c1` (stereo not given) displayed a melting point of 208 to 210 °C.

For the compound `CCc1nn2c(N)cc(C)nc2c1S(=O)(=O)c1ccc(OC)cc1`, the melting point lay in the range of 186 to 188 °C.

Compound `Cc1ccc(CSC[C@H](NC(=O)[C@H](C)CSC(=O)c2ccccc2)C(=O)O)cc1` displayed a melting point of 115 to 126 °C.

Regarding `COc1ccc(-c2cnc3cc4cnn(CC#N)c4cc3n2)cc1F`, the melting point fell in the range of 248 to 252 °C.

On to `CCOC[PH](=O)SCCSCCNC(=O)CCCCCn1c(=O)n(C)c(=O)c2[nH]cnc21` (stereo not given), for which the melting point was 103 to 106 °C.

`CC(C)(C)OC(=O)[C@@H]1CCCN2C(=O)CC[C@H](NC(=O)c3ccccc3)C(=O)N12` came in with a melting point of 74 to 76 °C.

Consider `Fc1ccccc1C1=NCC(=S)Nc2ccc(I)cc21`, for which the melting point fell in the range of 242 to 244 °C.

On to `CCOC(=O)C(=O)Nc1ccc2cccc([N+](=O)[O-])c2c1[N+](=O)[O-]`, for which the melting point amounted to 233 °C.

In the case of `CCOC(=O)c1c[nH]c(-c2ccccc2OCc2ccccc2)n1`, the melting point is 203 to 205 °C.

In turn, `CC(O)CCSC(=S)Nc1ccc(Cl)cn1` (stereo not given) displayed a melting point of 120 °C.

For the compound `NS(=O)(=O)c1ccc(-c2oc3ccc(F)cc3c(=S)c2-c2ccc(F)cc2)cc1`, the melting point is 224 to 225 °C.

As for `Cc1cc2[nH]c3c(c2cc1C)CC(N(C)C)CC3` (stereo not given), the melting point lay in the range of 183 to 187 °C.

Take `CCc1nc2ccccn2c1S(N)(=O)=S` (stereo not given): the melting point lay within 169 to 171 °C.

Take `COC(=O)c1cc(C(=O)NC(C)(C)CO)c2cc(Cc3ccc(F)cc3)cnc2c1O`: the melting point fell in the range of 204 to 205 °C.

As to `CC(=O)NC(C)Cc1cc2c(cc1CC(=O)O)OCO2` (stereo not given), the melting point is 195 to 197 °C.

`CCN(CC)C1CCCCC1Oc1ccc(Cc2c(-c3ccc(OCCN4CCCC4)cc3)sc3cc(O)ccc23)cc1` (stereo not given) returned a melting point of 95 to 100 °C.

Compound `Cc1nc2ccc3c(c2o1)C(=O)CC3` had a melting point of 106 to 107 °C.

`Cc1c(SCCN)ccnc1CSc1nc2ccccc2[nH]1` returned a melting point of 158 to 160 °C.

The compound `Cc1cc2nn(C)c(=O)n2nc1-c1cccc(N)c1` displayed a melting point of 192 to 195 °C.

`C=CC(=O)Oc1c(C(C)c2cc(C(C)(C)C)cc(C(C)(C)C)c2O)cc(C(C)(C)C)cc1C(C)(C)C` (stereo not given): the melting point lay in the range of 190 to 192 °C.

The compound `O=C(Cc1ccc([N+](=O)[O-])cc1)CN1C(=O)c2ccccc2C1=O` came in with a melting point of 184 °C.

The compound `NS(=O)(=O)c1ccccc1C1CCOC1=O` (stereo not given) returned a melting point of 141 to 146 °C.

Regarding `COC(=O)C(N)(CO)Cc1c[nH]c2ccccc12` (racemic), the melting point was in the range of 148 to 149 °C.

`O=C1NC(=O)c2c1c(-c1ccccc1)cc1oc3ccc(O)cc3c21` yielded a melting point of 288 to 290 °C.

For the compound `Cc1cc(C)n(-c2nc(Nc3ccc(Cl)cc3)cc(N3CCOCC3)n2)n1`, the melting point was 186 to 187 °C.

Take `CCCCCCN(C[C@H]1CC[C@H](CN(CCCCCC)C(=O)Nc2ccc(N(C)C)cc2)CC1)C(=O)Nc1ccc(N(C)C)cc1`: the melting point lay within 160 to 163 °C.

As to `O=C(O)C(CCCN1C(=O)c2ccccc2S1(=O)=O)NS(=O)(=O)c1ccc(-c2ccc(Cl)cc2)cc1` (stereo not given), the melting point fell in the range of 177 to 179 °C.

As to `O=c1[nH]nnn1-c1ccc(C(F)(F)F)cc1`, the melting point is 191 to 192 °C.

As for `C=CCn1[nH]c2cc(OC)ccc2c1=O`, the melting point came out at 126 °C.

In turn, `CC(=O)Nc1ccc(OC(F)(F)C(F)F)cc1[N+](=O)[O-]` showed a melting point of 80 to 81 °C.

The compound `NC1(C2CCCC2=O)OCCO1` (stereo not given) registered a melting point of 134 to 136 °C.

In the case of `COc1ccccc1C1=Nc2ccc(N3CCCC3)cc2C(=O)C1`, the melting point fell in the range of 312 to 313 °C.

In the case of `COc1cc2c(c(OC)c1OC)-c1ccc(OC(=O)N3CCC(N4CCCCC4)CC3)cc1C(NC(C)=O)CC2` (stereo not given), the melting point fell in the range of 168 to 175 °C.

For the compound `COc1ccccc1N1CCN(c2nc3cccccc-3c2C#N)CC1`, the melting point fell in the range of 141 to 143 °C.

The compound `CC1=C(C(=O)N[C@H](C)c2ccccc2)[C@H](c2ccc(F)cc2Cl)N=C(c2nccs2)N1` registered a melting point of 224 to 226 °C.

In the case of `COC(=O)C(N)=Cc1ccc(OCC(O)CNC(C)C)c(Cl)c1` (stereo not given), the melting point was in the range of 122 to 123 °C.

`COC(Cn1cncn1)(c1ccc(Cl)cc1)C(C)(C)C1CC1` (stereo not given) had a melting point of 87 to 89 °C.

As to `C[C@]12C[C@H](c3ccc(OCCCCCCCl)cc3)[C@@H]3c4ccc(O)cc4CC[C@H]3[C@@H]1CC[C@@H]2O`, the melting point was 176 °C.

Compound `COc1ccc(C#N)cc1-c1cc(-c2cccc(C#N)c2)on1` displayed a melting point of 241 to 243 °C.

The compound `CCN1CC(Cc2ccc(C(=O)O)cc2OC)c2cc(NC(=O)CC3CCCC3)ccc21` (stereo not given) returned a melting point of 183 to 186 °C.

With `N#CCCCc1ccc2ccccc2c1O`, the melting point was in the range of 76 to 78 °C.

The compound `CC(C)OC(=O)c1cc(-n2c(=O)[nH]c3c(c2=O)CCCC3)ccc1Cl` displayed a melting point of 205 to 207 °C.

The compound `CCN1CCN(c2nc(-c3ccc(OCCO)cc3OC)cc3ccccc23)CC1` displayed a melting point of 140 to 142 °C.

With `COc1c(Cl)ccc(-c2cc(N)c(Cl)c(C(=O)NOCCC#N)n2)c1F`, the melting point lay within 191 to 194 °C.

`CCC(=NNc1ccc(-c2ccc(=O)n(C)n2)cc1)c1ccc(O)cc1O` gave a melting point of 225 to 233 °C.

`CS(=O)(=O)c1ccc(-c2sc(-c3ccccc3Cl)nc2-c2ccc(Cl)cc2)cc1` yielded a melting point of 177 to 179 °C.

On to `CS(=O)(=O)N(N)C(=O)c1cc([N+](=O)[O-])c(C(F)(F)F)cc1N`, for which the melting point was in the range of 221 to 227 °C.

`Cc1cnc2c(c1)CCCC2=NO` showed a melting point of 188 °C.

With `CC(C)(C)c1ccc(C=NOCCOc2ccc(C(=O)O)c(O)c2)cc1`, the melting point is 161 to 163 °C.

Compound `Cn1cnc(COc2nn3c(-c4ccc(F)cc4F)nnc3cc2C2(C)CCCCC2)n1` came in with a melting point of 156 °C.

`CCc1ccc2c(c1)C=Cc1cc(C)ccc1C2c1cn(-c2ccnc(N3CC(C(=O)Nc4nc(CC(=O)O)cs4)C3)n2)c(=O)[nH]c1=O` (stereo not given) came in with a melting point of 235 °C.

`COc1cc2c(Nc3ccc(Cl)cc3F)ncnc2cc1OCc1ccnc(Br)c1` registered a melting point of 210 to 212 °C.

Compound `Nc1cccc(NC(=O)C(F)(F)C(F)(F)F)c1` had a melting point of 86 to 88 °C.

For `Cn1cc(C(=O)O)c(=O)c2cc3cc(F)c(N4CCN(O)CC4)c(F)c3nc21`, the melting point is 285 to 288 °C.

In turn, `CCc1sc2ncnc(N)c2c1-c1ccc(NS(=O)(=O)c2ccccc2)cc1` registered a melting point of 209 to 210 °C.

`O=S1(=O)OCC(COC(C(F)(F)F)(C(F)(F)F)C(F)(F)F)(COC(C(F)(F)F)(C(F)(F)F)C(F)(F)F)CO1` displayed a melting point of 90 to 91 °C.

For `COc1ccc(-c2ccc3c(c2)c2ccc(-c4ccc(OC)cc4)nc2n3S(=O)(=O)c2ccccc2)cc1`, the melting point lay in the range of 206 to 208 °C.

For the compound `CC(C)(C)[Si](OCCOc1ccc(/C=C/C(=O)O)c(Oc2ncc(C(F)(F)F)cc2Cl)c1)(c1ccccc1)c1ccccc1`, the melting point came out at 153 °C.

`COc1cc2c(cc1F)C(=Cc1ccc(S(C)=O)cc1)C(C)=C2CC(=O)O` (stereo not given): the melting point was in the range of 190 to 193 °C.

Compound `CC(C)N1C(=O)N(c2ccc(C#N)c(C(F)(F)F)c2)C(=O)C1(CF)CF` gave a melting point of 153 to 154 °C.

Compound `O=C(O)c1ccc2oc(-c3ccc(Cl)c(Cl)c3)cc2c1` showed a melting point of over 260 °C.

The compound `COC(=O)[C@@H]1C/C=C/COc2ccc(cc2)C[C@H](NC(=O)OC(C)(C)C)C(=O)N[C@@H](C(C)C)C(=O)N1` registered a melting point of 105 to 107 °C.

The compound `CCn1cc(C(F)(F)F)c(=O)[nH]c1=O` displayed a melting point of 259 to 260 °C.

Regarding `COc1c(/C=C/c2ccc(C#N)cc2)c(C)cc2c1C(C)(C)CCC2(C)C`, the melting point was found to be 120 °C.

As for `Cc1ccccc1NNC(=O)c1ccccc1C(F)(F)F`, the melting point was in the range of 55 to 57 °C.

`CC1(C)CC(CCCCNc2nc(Cl)nc(NCCCCC3CC(C)(C)NC(C)(C)C3)n2)CC(C)(C)N1` had a melting point of 40 to 42 °C.

The compound `COc1c(Cl)ccc(-c2nc(C(=O)OCc3ccc(Cl)cc3)c(Cl)c(N)c2F)c1F` yielded a melting point of 143 °C.

Regarding `CCOC(=O)c1cnc2n(c1=O)C(C)CC=C2N(C)c1ccccc1` (stereo not given), the melting point was 140 to 142 °C.

Consider `CCOC(=O)CC(=O)Nc1cc(F)cc(F)c1`, for which the melting point is 42 to 45 °C.

As for `CO[C@@H]1[C@@H](OC)[C@H](C)O[C@@H](ON(Cc2ccc(-c3ncn(-c4ccc(OC(F)(F)F)cc4)n3)cc2)C(=O)CCC(=O)O)[C@@H]1OC`, the melting point fell in the range of 61 to 75 °C.

`CS(=O)(=O)C(=C1CN(C(c2ccccc2)c2ccccc2)C1)c1ccccc1` showed a melting point of 210 °C.

`CC(Br)c1ccc(-n2nccn2)cn1` (stereo not given) returned a melting point of 72 to 73 °C.
